Key:
IRAK3 [1] = biological target: T1, IRAK3 (Homo sapiens, UniProt Q9Y616); test: IRAK Endogenous HTRF Degradation Assay; type: cell-based; settings: endogenous IRAK3, overnight incubation; for Dmax: % Dmax=100−Ymin; for DC50: concentration at which 50% degradation is achieved
T1 construct: IRAK Endogenous HTRF Degradation Assay; endogenous in cells
T1 sequence (Q9Y616 1-596): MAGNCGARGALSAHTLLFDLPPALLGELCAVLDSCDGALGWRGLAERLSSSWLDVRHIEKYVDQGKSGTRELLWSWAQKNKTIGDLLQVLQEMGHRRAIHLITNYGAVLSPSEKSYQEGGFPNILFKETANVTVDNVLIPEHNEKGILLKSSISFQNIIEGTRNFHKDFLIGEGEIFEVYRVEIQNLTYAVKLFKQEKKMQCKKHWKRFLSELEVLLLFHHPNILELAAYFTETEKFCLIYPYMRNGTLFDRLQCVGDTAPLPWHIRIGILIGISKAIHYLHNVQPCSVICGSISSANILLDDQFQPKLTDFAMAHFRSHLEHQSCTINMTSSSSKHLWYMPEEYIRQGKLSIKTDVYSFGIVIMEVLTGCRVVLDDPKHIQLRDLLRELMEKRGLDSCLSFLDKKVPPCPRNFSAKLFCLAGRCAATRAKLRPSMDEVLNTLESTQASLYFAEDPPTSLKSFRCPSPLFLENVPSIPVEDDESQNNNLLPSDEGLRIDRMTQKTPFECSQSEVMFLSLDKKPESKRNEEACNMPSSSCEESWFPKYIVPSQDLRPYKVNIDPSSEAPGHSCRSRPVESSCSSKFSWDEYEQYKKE
Method: Cells (˜50 k) were plated in Cisbio 96-well low volume white plates (Cisbio: cat #66PL96005). Compounds were dissolved in DMSO and a 3-fold serial dilution was performed using a TECAN D300E. Cells were incubated with the compound overnight. Total-IRAK3 HTRF kit from Cisbio was used for degradation analysis (Cisbio: 63ADK101PEH). Cryptate and D2 antibodies were diluted in Detection buffer as per manufacturers recommendation. Then 2 μL of each solution was added to 16 μL lysate. Buffer control (lysis buffer detection buffer), Cryptate control (lysis buffer+cryptate antibody+detection buffer), and Negative control (lysis buffer+cryptate antibody+D2 antibody) were made as per manufacturers recommendation. Post incubation with antibodies the HTRF signal was measured using a Perkin Elmer Envision reader and the HTRF signal was calculated using formula: (Emission at 665 nm/Emission at 615 nm)*10,000. All HTRF values were normalized to the average value of DMSO. The average value of the DMSO control wells were set to equal 100% of the relative IRAK3 protein levels. Normalized luminescence values were plotted on a graph as a function of compound concentration. Compound concentration was plotted on the x-axis and the corresponding normalized IRAK3 protein levels on the y-axis. The EC50 value (the half-maximum effective concentration) of a compound for the degradation of the IRAK3 was calculated using a four-parameter logistic model (sigmoidal dose−response model)(FIT=(A+{(B−A)/1+[(C/x)D]})) where C is the inflection point (EC50), D is the […], and A and B are the low and high limits of the fit, respectively). The Ymin was calculated by determining the lowest percentage of target protein remaining following compound treatment. Dmax was calculated from Ymin (% Dmax=100−Ymin).
(§1) Using these assays, IC50, Dmax, EC50, and DC50 values of the following compounds were determined. Dmax is defined as the maximum percent degradation achieved and DC50 is the concentration at which 50% degradation is achieved.

IRAK3 [2] = biological target: T1, IRAK3; test: IRAK3 Biochemical Binding Assay (LanthaScreen Eu Kinase Binding); settings: TR-FRET tracer displacement, 1 hour at room temperature
Method: The LanthaScreen® Eu Kinase Binding assay was performed as described by the vendor (ThermoFisher Scientific Waltham, MA). Briefly, 100× solutions of compound were prepared in DMSO via serial dilution of the 10 mM stock solution in a 384-well reagent plate using 3-fold intervals to achieve final concentrations. 1 μL of the compound dilution series were added to the corresponding wells of a 384-well reagent plate containing 32.3 μL of 1× buffer (50 mM HEPES pH 7.4, […], 1 mM EGTA, 0.01% Brij-35). 5 μL of the buffer diluted compounds were transferred to the corresponding wells of a 384-well assay plate. 5 μL of 3× tracer was transferred to each well of the assay plate for a final tracer concentration of 10 nM. Finally, 5 μL of the 3× Eu-Anti-GST and IRAK3 mix was transferred to each well for a final concentration of 2 nM and 10 nM respectively. Reactions were allowed to incubate for 1 hour at room temperature. TR-FRET signal of the interaction (λex340/λem 665/λem 615) was read at room temperature with a delay time of 100 μs and an integration time of 200 μs using an Envision plate reader. Background corrected emission signal ratios at each compound concentration were used to calculate percentage of inhibition (% Inhibition). Plots of % Inhibition versus inhibitor concentrations were fit according to a dose-response equation (Eq. 1) to generate IC50 and Hill slope values using Dotmatics software (Dotmatics, Bishops Stortford, Hertfordshire, England).
as §1

Row | SMILES | Dmax (IRAK3 [1]) [%] | DC50 (IRAK3 [1]) [nM] | IC50 (IRAK3 [2]) [nM]
1 | Cc1cccc(-c2cnc(Nc3ccc(N4CCN(C(=O)COc5cccc6c5C(=O)N(C5CCC(=O)NC5=O)C6=O)CC4)cc3)c3nccn23)c1 (stereo not drawn) [Compound 1, 2-(2,6-Dioxopiperidin-3-yl)-4-(2-oxo-2-(4-(4-((5-(m-tolyl)imidazo[1,2-a]pyrazin-8-yl)amino)phenyl)piperazin-1-yl)ethoxy)isoindoline-1,3-dione] | 7 | > 10000 | 278
2 | Cc1cccc(-c2cnc(Nc3ccc(N4CCN(C(=O)CCCNC(=O)COc5cccc6c5C(=O)N(C5CCC(=O)NC5=O)C6=O)CC4)cc3)c3nccn23)c1 (stereo not drawn) [Compound 2, 2-((2-(2,6-Dioxopiperidin-3-yl)-1,3-dioxoisoindolin-4-yl)oxy)-N-(4-oxo-4-(4-(4-((5-(m-tolyl)imidazo[1,2-a]pyrazin-8-yl)amino)phenyl)piperazin-1-yl)butyl)acetamide] | 13 | > 10000 | 30
3 | Cc1cccc(-c2cnc(Nc3ccc(N4CCN(C(=O)CCOCCNC(=O)COc5cccc6c5C(=O)N(C5CCC(=O)NC5=O)C6=O)CC4)cc3)c3nccn23)c1 (stereo not drawn) [Compound 3, 2-((2-(2,6-Dioxopiperidin-3-yl)-1,3-dioxoisoindolin-4-yl)oxy)-N-(2-(3-oxo-3-(4-(4-((5-(m-tolyl)imidazo[1,2-a]pyrazin-8-yl)amino)phenyl)piperazin-1-yl)propoxy)ethyl)acetamide] | 3 | > 10000 | 84
4 | Cc1cccc(-c2cnc(Nc3ccc(N4CCN(C(=O)CCOCCNC(=O)COc5ccc6c(c5)C(=O)N(C5CCC(=O)NC5=O)C6=O)CC4)cc3)c3nccn23)c1 (stereo not drawn) [Compound 6, 2-((2-(2,6-Dioxopiperidin-3-yl)-1,3-dioxoisoindolin-5-yl)oxy)-N-(2-(3-oxo-3-(4-(4-((5-(m-tolyl)imidazo[1,2-a]pyrazin-8-yl)amino)phenyl)piperazin-1-yl)propoxy)ethyl)acetamide] | 13 | > 10000 | 83
5 | Cc1cccc(-c2cnc(Nc3cnn(C4CCN(C5CCC6(CC5)CCN(C(=O)c5ccc7c(c5)CN(C5CCC(=O)NC5=O)C7=O)CC6)CC4)c3)c3nccn23)c1 (stereo not drawn) [Compound 12, 3-(1-Oxo-5-(9-(4-(4-((5-(m-tolyl)imidazo[1,2-a]pyrazin-8-yl)amino)-1H-pyrazol-1-yl)piperidin-1-yl)-3-azaspiro[5.5]undecane-3-carbonyl)isoindolin-2-yl)piperidine-2,6-dione] | 81 | 10 | 2

Other lines, results leading:

Row | Dmax (IRAK3 [1]) [%] | DC50 (IRAK3 [1]) [nM] | IC50 (IRAK3 [2]) [nM] | SMILES
6 | 4 | > 10000 | 128 | Cc1cccc(-c2cnc(Nc3ccc(N4CCN(C(=O)COc5ccc6c(c5)C(=O)N(C5CCC(=O)NC5=O)C6=O)CC4)cc3)c3nccn23)c1 (stereo not drawn) [Compound 4, 2-(2,6-Dioxopiperidin-3-yl)-5-(2-oxo-2-(4-(4-((5-(m-tolyl)imidazo[1,2-a]pyrazin-8-yl)amino)phenyl)piperazin-1-yl)ethoxy)isoindoline-1,3-dione]
7 | 18 | > 10000 | 71 | Cc1cccc(-c2cnc(Nc3ccc(N4CCN(C(=O)CCCNC(=O)COc5ccc6c(c5)C(=O)N(C5CCC(=O)NC5=O)C6=O)CC4)cc3)c3nccn23)c1 (stereo not drawn) [Compound 5, 2-((2-(2,6-Dioxopiperidin-3-yl)-1,3-dioxoisoindolin-5-yl)oxy)-N-(4-oxo-4-(4-(4-((5-(m-tolyl)imidazo[1,2-a]pyrazin-8-yl)amino)phenyl)piperazin-1-yl)butyl)acetamide]
8 | 27 | > 10000 | 33 | Cc1cccc(-c2cnc(Nc3ccc(N4CCN(CCNC(=O)COc5ccc6c(c5)C(=O)N(C5CCC(=O)NC5=O)C6=O)CC4)cc3)c3nccn23)c1 (stereo not drawn) [Compound 7, 2-((2-(2,6-Dioxopiperidin-3-yl)-1,3-dioxoisoindolin-5-yl)oxy)-N-(2-(4-(4-((5-(m-tolyl)imidazo[1,2-a]pyrazin-8-yl)amino)phenyl)piperazin-1-yl)ethyl)acetamide]
9 | 73 | 20 | < 0.5 | Cc1cccc(-c2cnc(Nc3cnn(C4CCN(CCNC(=O)COc5ccc6c(c5)C(=O)N(C5CCC(=O)NC5=O)C6=O)CC4)c3)c3nccn23)c1 (stereo not drawn) [Compound 8, 2-((2-(2,6-Dioxopiperidin-3-yl)-1,3-dioxoisoindolin-5-yl)oxy)-N-(2-(4-(4-((5-(m-tolyl)imidazo[1,2-a]pyrazin-8-yl)amino)-1H-pyrazol-1-yl)piperidin-1-yl)ethyl)acetamide]
10 | 33 | > 10000 | 214 | Cc1cccc(-c2cnc(Nc3cccc(C4CCN(CCNC(=O)COc5ccc6c(c5)C(=O)N(C5CCC(=O)NC5=O)C6=O)CC4)c3)c3nccn23)c1 (stereo not drawn) [Compound 9, 2-((2-(2,6-Dioxopiperidin-3-yl)-1,3-dioxoisoindolin-5-yl)oxy)-N-(2-(4-(3-((5-(m-tolyl)imidazo[1,2-a]pyrazin-8-yl)amino)phenyl)piperidin-1-yl)ethyl)acetamide]
11 | 30 | > 10000 | 236 | Cc1cccc(-c2cnc(Nc3ccc(C4CCN(CCNC(=O)COc5ccc6c(c5)C(=O)N(C5CCC(=O)NC5=O)C6=O)CC4)cc3)c3nccn23)c1 (stereo not drawn) [Compound 10, 2-((2-(2,6-Dioxopiperidin-3-yl)-1,3-dioxoisoindolin-5-yl)oxy)-N-(2-(4-(4-((5-(m-tolyl)imidazo[1,2-a]pyrazin-8-yl)amino)phenyl)piperidin-1-yl)ethyl)acetamide]
12 | 21 | > 10000 | 5340 | Cc1cccc(-c2cnc(Nc3cccc(N4CCN(CCNC(=O)COc5ccc6c(c5)C(=O)N(C5CCC(=O)NC5=O)C6=O)CC4)c3)c3nccn23)c1 (stereo not drawn) [Compound 11, 2-((2-(2,6-Dioxopiperidin-3-yl)-1,3-dioxoisoindolin-5-yl)oxy)-N-(2-(4-(3-((5-(m-tolyl)imidazo[1,2-a]pyrazin-8-yl)amino)phenyl)piperazin-1-yl)ethyl)acetamide]

— patent US20260028343A1, “Substituted Imidazopyrazine Compounds as Ligand Directed Degraders of IRAK3” (Celgene Corporation, priority 2022, published 2026)
